# Columns and labels:
# Experiment in all cases: Minimal Inhibitory Concentration (MIC), agar dilution method
# Assay type in all cases: cell-based
# Parameters in all cases: unit not given here
# [1] = tested on: A. calcoaceticus IFO 13006; details: Test Microorganism (16) A. calcoaceticus IFO 13006; Trypticase soy agar, 37°C for 18 hours
# Method: (§1) Minimal Inhibitory Concentration (MIC)
# (§2) The Minimal Inhibitory Concentrations of the tested compounds were determined according to the agar dilution method. Namely, 1.0 ml each of aqueous solution of the tested compounds diluted by serial dilutions was poured into test petri dishes, subsequently 9.0 ml each of Trypticase soy agar was poured into the dishes and mixed. On each of the mixed agar plates, one loopful of bacterial suspension (about 10^8 CFU/ml) of test microorganism was streaked.
# (§3) After the incubation at 37°C for 18 hours, the lowest concentration of the tested compounds in the medium which caused apparently complete inhibition of growth of the test microorganism was taken to be minimal inhibitory concentration.
# (§4) • (1) S. aureus FDA 209P • (2) S. aureus 308 A-1 • (3) S. aureus 1840 • (4) E. coli NIHJ JC-2 • (5) E. coli 0-111 • (6) E. coli T-7 • (7) C. freundii IFO 12681 • (8) K. pneumoniae DT • (9) E. cloacae IFO 12937 • (10) S. marcescens IFO 12648 • (11) P. vulgaris IFO 3988 • (12) P.-mirabilis IFO 3849 • (13) P. morganii IFO 3168 • (14) P. aeruginosa IFO 3455 • (15) P. aeruginosa U 31 • (16) A. calcoaceticus IFO 13006
# P. vulgaris IFO 3988 = details: Test Microorganism (11) P. vulgaris IFO 3988; Trypticase soy agar, 37°C for 18 hours
# Method: as §1, §2, §3, §4
# E. coli 0-111 = details: Test Microorganism (5) E. coli 0-111; Trypticase soy agar, 37°C for 18 hours
# Method: as §1, §2, §3, §4
# S. aureus FDA 209P = details: Test Microorganism (1) S. aureus FDA 209P; Trypticase soy agar, 37°C for 18 hours
# Method: as §1, §2, §3, §4
# C. freundii IFO 12681 = details: Test Microorganism (7) C. freundii IFO 12681; Trypticase soy agar, 37°C for 18 hours
# Method: as §1, §2, §3, §4
# E. cloacae IFO 12937 = details: Test Microorganism (9) E. cloacae IFO 12937; Trypticase soy agar, 37°C for 18 hours
# Method: as §1, §2, §3, §4
# P. morganii IFO 3168 = details: Test Microorganism (13) P. morganii IFO 3168; Trypticase soy agar, 37°C for 18 hours
# Method: as §1, §2, §3, §4
# P.-mirabilis IFO 3849 = details: Test Microorganism (12) P.-mirabilis IFO 3849; Trypticase soy agar, 37°C for 18 hours
# Method: as §1, §2, §3, §4
# P. aeruginosa IFO 3455 = details: Test Microorganism (14) P. aeruginosa IFO 3455; Trypticase soy agar, 37°C for 18 hours
# Method: as §1, §2, §3, §4
# S. aureus 1840 = details: Test Microorganism (3) S. aureus 1840; Trypticase soy agar, 37°C for 18 hours
# Method: as §1, §2, §3, §4
# S. aureus 308 A-1 = details: Test Microorganism (2) S. aureus 308 A-1; Trypticase soy agar, 37°C for 18 hours
# Method: as §1, §2, §3, §4
# S. marcescens IFO 12648 = details: Test Microorganism (10) S. marcescens IFO 12648; Trypticase soy agar, 37°C for 18 hours
# Method: as §1, §2, §3, §4
# E. coli T-7 = details: Test Microorganism (6) E. coli T-7; Trypticase soy agar, 37°C for 18 hours
# Method: as §1, §2, §3, §4
# K. pneumoniae DT = details: Test Microorganism (8) K. pneumoniae DT; Trypticase soy agar, 37°C for 18 hours
# Method: as §1, §2, §3, §4
# E. coli NIHJ JC-2 = details: Test Microorganism (4) E. coli NIHJ JC-2; Trypticase soy agar, 37°C for 18 hours
# Method: as §1, §2, §3, §4
# P. aeruginosa U 31 = details: Test Microorganism (15) P. aeruginosa U 31; Trypticase soy agar, 37°C for 18 hours
# Method: as §1, §2, §3, §4
SMILES,Minimal Inhibitory Concentration (MIC) [1],Minimal Inhibitory Concentration (MIC) (P. vulgaris IFO 3988),Minimal Inhibitory Concentration (MIC) (E. coli 0-111),Minimal Inhibitory Concentration (MIC) (S. aureus FDA 209P),Minimal Inhibitory Concentration (MIC) (C. freundii IFO 12681),Minimal Inhibitory Concentration (MIC) (E. cloacae IFO 12937),Minimal Inhibitory Concentration (MIC) (P. morganii IFO 3168),Minimal Inhibitory Concentration (MIC) (P.-mirabilis IFO 3849),Minimal Inhibitory Concentration (MIC) (P. aeruginosa IFO 3455),Minimal Inhibitory Concentration (MIC) (S. aureus 1840),Minimal Inhibitory Concentration (MIC) (S. aureus 308 A-1),Minimal Inhibitory Concentration (MIC) (S. marcescens IFO 12648),Minimal Inhibitory Concentration (MIC) (E. coli T-7),Minimal Inhibitory Concentration (MIC) (K. pneumoniae DT),Minimal Inhibitory Concentration (MIC) (E. coli NIHJ JC-2),Minimal Inhibitory Concentration (MIC) (P. aeruginosa U 31)
CC(C)(O)[C@@H]1C(=O)N2C(C(=O)O)=C(SCCN)C[C@H]12 [Example 2],3.13,50,0.39,0.39,3.13,12.5,50,50,6.25,1.56,0.78,12.5,1.56,12.5,1.56,25
"CC(C)(O)[C@@H]1C(=O)N2C(C(=O)O)=C(Sc3cccnn3)C[C@H]12 [Example 20, Sodium 5,6-cis-3-(3-pyridazinylthio)-6-(l-hydroxy-l-methylethyl)-7-oxo-1-azabicyclo[3.2.0]hept-2-ene-2-carboxylate]",12.5,3.13,0.2,0.39,0.78,1.56,3.13,3.13,50,0.78,0.39,1.56,3.13,0.78,0.78,>100
"CN(C)CCSC1=C(C(=O)O)N2C(=O)[C@@H](C(C)(C)O)[C@H]2C1 [Example 26, 5,6-cis-3-[2-(N,N-Dimethylaminoethyl)thio]-6-(1-hydroxy-1-methylethyl)-7-oxo-1-azabicyclo[3.2.0]hept-2-ene-2-carboxylic acid]",12.5,50,0.39,0.39,3.13,6.25,50,50,25,0.78,0.39,6.25,0.78,25,0.78,50
"CC(C)(O)[C@@H]1C(=O)N2C(C(=O)O)=C(SCCCN)C[C@H]12 [Example 33, 5,6-cis-3-(3-Aminopropylthio)-6-(l-hydroxy-l-methylethyl)-7-oxo-l-azabicyclo[3.2.0]hept-2-ene-2-carboxylic acid]",3.13,50,0.39,0.78,3.13,6.25,50,50,12.5,0.78,0.78,6.25,0.78,6.25,0.39,50
"CC(C)(O)[C@@H]1C(=O)N2C(C(=O)O)=C(SCCNC=N)C[C@H]12 [Example 46, 5,6-cis-3-(2-formimidoylaminoethylthio)-6-(1-hydroxy-1-methylethyl)-7-oxo-l-azabicyclo[3.2.0]hept-2-ene-2-carboxylic acid]",6.25,25,0.39,0.39,1.56,6.25,25,25,3.13,0.78,0.78,3.13,0.78,6.25,0.39,6.25
"CC(C)(O)[C@@H]1C(=O)N2C(C(=O)O)=C(SCCCNC=N)C[C@H]12 [Example 47, 5,6-cis-3-(3-formimidoylaminopropylthio)-6-(1-hydroxy-1-methylethyl)-7-oxo-1-azabicyclo[3.2.0]hept-2-ene-2-carboxylic - acid]",6.25,25,0.39,0.39,1.56,6.25,25,25,3.13,0.78,0.39,3.13,0.78,6.25,0.39,12.5
CC(C)(O)[C@@H]1C(=O)N2C(C(=O)O)=C(SCCN3CCCC3)C[C@H]12 [Example 49],12.5,100,0.39,0.2,3.13,12.5,50,50,12.5,0.78,0.39,6.25,0.78,6.25,0.78,50
"CC(C)(O)[C@@H]1C(=O)N2C(C(=O)O)=C(SCCN3CCCCC3)C[C@H]12 [Example 51, 5,6-cis-3-(2-Piperidinoethylthio)-6-(1-hydroxy-1-methylethyl)-7-oxo-1-azabicyclo[3.2.0]hept-2-ene-carboxylic acid]",25,25,0.39,0.2,3.13,6.25,25,25,50,0.78,0.39,6.25,0.78,6.25,0.78,>100

# Reference: patent publication EP0074599A1, “5,6-cis-Carbapenem derivatives, their production and use” (Takeda Chemical Industries, Ltd., priority 1981, dated 1983)
